How the values were obtained:
[1] = target: T1, AXL (Homo sapiens, UniProt P30530); assay: AXL enzyme inhibition (recombinant enzyme); type: biochemical
T1 sequence (P30530 26-894): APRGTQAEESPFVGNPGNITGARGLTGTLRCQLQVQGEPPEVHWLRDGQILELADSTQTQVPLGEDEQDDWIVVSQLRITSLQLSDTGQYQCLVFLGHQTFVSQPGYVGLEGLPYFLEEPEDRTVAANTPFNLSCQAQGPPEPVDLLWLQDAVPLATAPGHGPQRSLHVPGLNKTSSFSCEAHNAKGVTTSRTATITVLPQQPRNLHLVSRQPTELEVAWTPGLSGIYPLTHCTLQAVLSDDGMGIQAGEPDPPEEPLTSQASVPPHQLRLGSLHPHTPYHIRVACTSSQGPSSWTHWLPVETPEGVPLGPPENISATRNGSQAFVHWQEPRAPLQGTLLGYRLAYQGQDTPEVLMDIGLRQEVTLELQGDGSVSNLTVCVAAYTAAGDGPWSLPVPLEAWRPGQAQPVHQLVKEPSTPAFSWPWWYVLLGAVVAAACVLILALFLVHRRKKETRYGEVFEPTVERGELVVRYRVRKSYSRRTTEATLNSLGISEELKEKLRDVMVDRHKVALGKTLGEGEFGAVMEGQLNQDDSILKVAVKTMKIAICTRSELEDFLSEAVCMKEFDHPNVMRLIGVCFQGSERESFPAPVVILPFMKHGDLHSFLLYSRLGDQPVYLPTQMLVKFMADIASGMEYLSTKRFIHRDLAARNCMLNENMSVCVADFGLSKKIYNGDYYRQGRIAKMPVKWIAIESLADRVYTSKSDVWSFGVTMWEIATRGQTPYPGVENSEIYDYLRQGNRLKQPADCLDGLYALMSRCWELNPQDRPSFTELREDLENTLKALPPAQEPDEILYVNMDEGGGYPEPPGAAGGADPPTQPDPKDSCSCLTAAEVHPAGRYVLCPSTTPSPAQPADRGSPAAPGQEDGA

[2] = target: T1, AXL; assay: Cellular AXL inhibition in AXL-transfected 293GT cells; type: cell-based
[3] = target: T1, AXL; assay: Cellular potency in NCI-H1299 human NSCL cells; type: cell-based; set-up: endogenous in cells; host or cells: NCI-H1299 human NSCLC cells (culture; subcutaneous xenograft in mice)
[4] = test system: EBC-1 Human NSCLC xenografts; assay: Anti-tumor efficacy in EBC-1 NSCLC xenografts; type: in vivo, mice
From the text: The human NSCL cancer cell line, EBC-1 was purchased from ATCC (American Tissue Culture Collection, Manassas, Va.) and cultured in DMEM medium with 10% fetal bovine serum (FBS, Cat# SH3007003, Hyclone Laboratory Inc, Logan, Utah). Female Nu/Nu mice (6-8 weeks, Charles River Laboratory, Wilmington, Mass.) were maintained 5/cage in microisolator units on a standard laboratory diet (Teklad Labchow, Harlan Teklad, Madison, Wis.). Animals were housed under humidity- and temperature-controlled conditions and the light/dark cycle was set at 12-hour intervals. Mice were quarantined at least 1 week prior to experimental manipulation. […] The mice were then monitored daily. […] The length (L) and width (W) of each tumor was measured with a vernier caliper and the mouse body weight was determined every 2-3 days. The tumor volumes were then calculated with the formula of 0.5236*L*W*(L+W)/2. […] Plasma and tumor samples were obtained at 2 hours post final dose at each dose level, and the compound levels in plasma and tumor lysates were measured by LC-MS/MS. The TGI values were calculated at the end of study by comparing the tumor volumes (TV) of each CEP-40783-treatment group with those of vehicle-treated group with the following formula: 1-(the last day TV of compound-treated group/the last day TV of vehicle-treated group).

[5] = target: T1, AXL; assay: Dissociation from AXL, LanthaScreen Eu-kinase binding assay
Experimental: Assay buffer was prepared as for association, and used for all dilutions. A 5-μL aliquot of 80 nM LanthaScreen Eu-anti-GST antibody:20 nM GST-tagged enzyme mix was added to the Greiner low volume white 384-well plate, with antibody only added to control wells. Compound (100 nL) in DMSO was added by pintool at 2000-fold over the final assay concentration. DMSO was added to no inhibitor control wells. After a one-hour incubation at ambient temperature to allow formation of the enzyme-inhibitor complex, 2 μL of the reaction mix was transferred to a 384 Optiplate (PerkinElmer) and 78 μL of kinase tracer 236 was added. The final tracer concentration was 100 nM for AXL and 200 nM for c-Met. Readings were immediately initiated and total of 60 time points were taken at 2-min intervals, at 25° C. or 37° C. The background subtracted ratio was normalized to the no inhibitor control to calculate the % tracer bound, which was plotted with respect to time. The data was fitted to the one phase association model in GraphPad Prism (La Jolla Calif.).

Work on `COc1cc2nccc(Oc3ccc(NC(=O)c4cn(C(C)C)c(=O)n(-c5ccc(F)cc5)c4=O)cc3F)c2cc1OC` [CEP-40783, 3-(4-Fluorophenyl)-1-isopropyl-2,4-dioxo-1,2,3,4-tetrahydropyrimidine-5-carboxylic acid [4-(6,7-dimethoxyquinolin-4-yloxy)-3-fluorophenyl]-amide] yielded an IC50 [1] of 7 nM, an IC50 [2] of 0.26 nM and an IC50 [3] of 0.1 nM. For the same compound, the “anti-tumor efficacy (tumor volume)” value ([4]; 3 mg/kg oral qd) was “tumor stasis and partial regressions”, the “anti-tumor efficacy (tumor volume)” value ([4]; 10 mg/kg and 30 mg/kg oral qd) was “tumor regressions” and the “off-rate from AXL” value ([5]; 25° C.) was “very slow”. The “dissociation rate from AXL at higher temperature” value ([5]; 37° C. versus 25° C.) was “slightly enhanced”.
